A short description of series [1]: AUC (0 to infinity) in Sprague-Dawley rat at 5 mg/kg, iv by LC-MS/MS analysis. It is filed as ADME, organism-based. Details: time infinity, dose 5 mg/kg, route iv. The following applies: in vivo.
The nature of series [2]: AUC (0 to infinity) in Sprague-Dawley rat at 5 mg/kg, po by LC-MS/MS analysis. It counts as ADME, organism-based. More on the design: time infinity, dose 5 mg/kg, route po. The following applies: in vivo.
Series [3] can be described thus: Cytotoxicity against human HK-2 cells assessed as reduction in cell viability incubated for 48 hrs by MTT assay. It is filed as toxicity, cell-based. On the technique in general: Tetrazolium assays rely on reduction of a dye to a coloured formazan, in cell work by metabolically active cells.
Series [4] is described as follows: Inhibition of URAT1 F365Y mutant (unknown origin)-mediated 14C-uric acid uptake expressed in HEK293 cells using 14C-uric acid as substrate preincubated for 30 mins followed by substrate addition and measured after 15 mins by liquid scintillation counting analysis. It counts as cell-based. The following applies: Homo sapiens.
Series [5] in a line: Inhibition of URAT1 R477K mutant (unknown origin)-mediated 14C-uric acid uptake expressed in HEK293 cells using 14C-uric acid as substrate preincubated for 30 mins followed by substrate addition and measured after 15 mins by liquid scintillation counting analysis. As to conditions: Homo sapiens. It is filed as cell-based.
Series [6] addresses T1, Solute carrier family 2, facilitated glucose transporter member 9 (Homo sapiens) (UniProt Q9NRM0).
T1 sequence (whole entry): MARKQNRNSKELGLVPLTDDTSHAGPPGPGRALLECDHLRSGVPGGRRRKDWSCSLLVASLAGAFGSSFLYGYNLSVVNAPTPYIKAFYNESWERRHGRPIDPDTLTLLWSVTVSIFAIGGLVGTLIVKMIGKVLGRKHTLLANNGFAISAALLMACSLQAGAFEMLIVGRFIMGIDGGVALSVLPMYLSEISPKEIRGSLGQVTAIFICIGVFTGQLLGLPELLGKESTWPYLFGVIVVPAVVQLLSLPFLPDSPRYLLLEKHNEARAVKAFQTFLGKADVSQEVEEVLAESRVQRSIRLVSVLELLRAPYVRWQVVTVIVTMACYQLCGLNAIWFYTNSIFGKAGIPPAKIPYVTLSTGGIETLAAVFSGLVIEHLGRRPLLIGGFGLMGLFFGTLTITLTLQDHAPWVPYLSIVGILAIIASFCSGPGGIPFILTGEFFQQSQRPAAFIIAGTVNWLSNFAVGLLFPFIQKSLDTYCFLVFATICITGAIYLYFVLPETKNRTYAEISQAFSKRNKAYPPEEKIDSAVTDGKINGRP
Nature of the series: Inhibition of GLUT9 (unknown origin) expressed in HEK293T cells assessed as inhibition of uric acid-induced current at 10 uM by whole cell patch clamp technique. It is filed as cell-based. (Patch clamp records ionic current or voltage across a cell membrane.)

The nature of series [7]: Cmax in Sprague-Dawley rat at 5 mg/kg, iv measured upto 36 hrs by LC-MS/MS analysis. It counts as ADME, organism-based. Details: time < 36 hrs, dose 5 mg/kg, route iv. The following applies: in vivo.
A short description of series [8]: MRT (0 to infinity) in Sprague-Dawley rat at 5 mg/kg, po by LC-MS/MS analysis. It counts as ADME, organism-based. The following applies: in vivo.
Series [9] can be described thus: Cytotoxicity against human HK-2 cells assessed as reduction in cell viability incubated for 24 hrs by MTT assay. It is filed as toxicity, cell-based.
A short description of series [10]: Renal toxicity in xanthine and potassium oxonate-induced acute hyperuricemia Kunming mouse model assessed as serum creatinine level at 10 mg/kg, po measured after 3 hrs. It counts as organism-based. The following applies: in vivo.
The nature of series [11]: Tmax in Sprague-Dawley rat at 5 mg/kg, po measured upto 36 hrs by LC-MS/MS analysis. It counts as ADME, organism-based. The following applies: in vivo.
Series [12] is described as follows: MRT (0 to infinity) in Sprague-Dawley rat at 5 mg/kg, iv by LC-MS/MS analysis. It is filed as ADME, organism-based. The following applies: in vivo.
A short description of series [13]: Oral bioavailability in Sprague-Dawley rat at 5 mg/kg measured upto 36 hrs by LC-MS/MS analysis. The following applies: in vivo. It counts as ADME, organism-based.
The subject of series [14] is Mus musculus. Description: Anti-hyperuricemic activity against xanthine and potassium oxonate-induced acute hyperuricemia Kunming mouse model assessed as serum uric acid concentration at 10 mg/kg, po measured after 3 hrs (reference value: 846.22 uM). It counts as functional.
Series [15] is described as follows: Half life in Sprague-Dawley rat at 5 mg/kg, po measured upto 36 hrs by LC-MS/MS analysis. As to conditions: in vivo. It counts as ADME, organism-based.
A short description of series [16]: Inhibition of URAT1 F241Y mutant (unknown origin)-mediated 14C-uric acid uptake expressed in HEK293 cells using 14C-uric acid as substrate preincubated for 30 mins followed by substrate addition and measured after 15 mins by liquid scintillation counting analysis. As to conditions: Homo sapiens. It is filed as cell-based.
The nature of series [17]: Inhibition of URAT1 F358Y mutant (unknown origin)-mediated 14C-uric acid uptake expressed in HEK293 cells using 14C-uric acid as substrate preincubated for 30 mins followed by substrate addition and measured after 15 mins by liquid scintillation counting analysis. It counts as cell-based. As to conditions: Homo sapiens.
The nature of series [18]: Inhibition of URAT1 S35N mutant (unknown origin)-mediated 14C-uric acid uptake expressed in HEK293 cells using 14C-uric acid as substrate preincubated for 30 mins followed by substrate addition and measured after 15 mins by liquid scintillation counting analysis. It is filed as cell-based. The following applies: Homo sapiens.
The nature of series [19]: Half life in Sprague-Dawley rat at 5 mg/kg, iv measured upto 36 hrs by LC-MS/MS analysis. It is filed as ADME, organism-based. As to conditions: in vivo.
For series [20], the target named is T2, Solute carrier family 22 member 6 (Homo sapiens, UniProt Q4U2R8).
T2 sequence (Q4U2R8 whole entry): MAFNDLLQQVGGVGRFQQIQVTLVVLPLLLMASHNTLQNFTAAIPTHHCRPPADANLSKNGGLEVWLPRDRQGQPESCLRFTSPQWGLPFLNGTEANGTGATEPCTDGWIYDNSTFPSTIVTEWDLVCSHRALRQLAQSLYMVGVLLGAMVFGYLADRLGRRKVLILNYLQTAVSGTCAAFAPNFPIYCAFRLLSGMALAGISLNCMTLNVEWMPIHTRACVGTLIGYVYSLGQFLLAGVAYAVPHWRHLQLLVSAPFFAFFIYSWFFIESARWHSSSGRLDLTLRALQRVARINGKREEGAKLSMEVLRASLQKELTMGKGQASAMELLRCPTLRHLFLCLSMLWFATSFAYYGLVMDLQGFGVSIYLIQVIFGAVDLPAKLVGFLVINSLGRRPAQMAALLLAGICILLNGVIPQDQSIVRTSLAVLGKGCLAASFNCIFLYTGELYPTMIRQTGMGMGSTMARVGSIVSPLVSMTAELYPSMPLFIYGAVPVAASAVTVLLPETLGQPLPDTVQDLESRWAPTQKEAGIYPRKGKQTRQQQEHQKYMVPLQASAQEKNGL
Nature of the series: Inhibition of OAT1 (unknown origin) expressed in HEK293 cells assessed as inhibition of 6-CFL uptake preincubated for 30 mins followed by incubation with 6-CFL and measured after 15 mins by fluorescence based analysis. It counts as toxicity, cell-based.

A short description of series [21]: Inhibition of URAT1 R487K mutant (unknown origin)-mediated 14C-uric acid uptake expressed in HEK293 cells using 14C-uric acid as substrate preincubated for 30 mins followed by substrate addition and measured after 15 mins by liquid scintillation counting analysis. It is filed as cell-based. As to conditions: Homo sapiens.
Series [22] is described as follows: Inhibition of URAT1 I481M mutant (unknown origin)-mediated 14C-uric acid uptake expressed in HEK293 cells using 14C-uric acid as substrate preincubated for 30 mins followed by substrate addition and measured after 15 mins by liquid scintillation counting analysis. As to conditions: Homo sapiens. It is filed as cell-based.
Series [23] has as its system Mus musculus. Nature of the series: Anti-hyperuricemic activity against xanthine and potassium oxonate-induced acute hyperuricemia Kunming mouse model assessed as increase in urine uric acid concentration at 10 mg/kg, po measured for 24 hrs. It is filed as functional.
Series [24] concerns the target T3, Solute carrier family 2, facilitated glucose transporter member 9 (Homo sapiens, UniProt Q9NRM0).
T3 sequence (Q9NRM0 whole entry): T1 sequence (whole entry)
Description: Inhibition of GLUT9 (unknown origin) expressed in HEK293T cells assessed as inhibition of uric acid-induced current by whole cell patch clamp technique. It is filed as cell-based.

Structures are written as SMILES.

Usually AUC(0-inf) stands for total exposure, with the tail of the curve extrapolated. Broadly, the IC50 is the point on the concentration scale where inhibition reaches its midpoint. The term inhibition denotes the change of the read-out against control, counted positive when it falls. One may read the Cmax as the highest concentration seen after dosing. Usually MRT inf stands for the average time that molecules of a dose stay in the body. One may read the Tmax as the time at which the peak concentration occurs. Usually bioavailability stands for the share of a dose that reaches the circulation, judged against a reference dose that is usually intravenous. A low value points to little systemic uptake. In general, half-life refers to the time in which the quantity being followed falls by half. Low readings indicate fast loss, high ones slow loss. Turning to `N#Cc1ccc(Nc2cnccc2SCc2ccccc2C(=O)[O-])c2ccccc12.[Na+]`, the AUC(0-inf) came out at 18500 ng·h/mL in series [1] and 5660 ng·h/mL in series [2]. In addition, in series [3], the IC50 at 48 h was 167 µM. Also, the IC50 in [4] was determined as 1570 nM; in series [5] it was 2170 nM; in series [16] it was 310 nM; in series [17], 780 nM; in series [18], 3.14 µM; in series [20] it was 32.1 µM. The IC50 in [21] was determined as 1890 nM; in series [22] it was 310 nM; in series [24] it was 9.37 µM. The inhibition in [6] came out at 51%. In series [7], this molecule yielded a peak concentration (Cmax) of 11100 ng/mL. For the same molecule, the results for the MRT inf in [8] and in series [12] were 3.17 h and 4.8 h, respectively. Further, in series [9], the half-maximal inhibitory concentration (IC50) at 24 h turned out to be 208 µM. In addition, the Activity entry in series [10] is “Non-Toxic”; in the series with Mus musculus [14], 645.8 µM; with Mus musculus [23] it was 2444.24 µM. Also, in series [11], the Tmax worked out at 30 min. The same molecule yielded a bioavailability in series [13] of 30.1%. Besides, the figures for the half-life in series [15] and in series [19] were 308 min and 251 min, respectively.

The values are drawn from ChEMBL document CHEMBL5154691, “Discovery of novel verinurad analogs as dual inhibitors of URAT1 and GLUT9 with improved Druggability for the treatment of hyperuricemia” (Eur J Med Chem, 2022).
